{"source": "patent US20210369714A1", "about": "“Prevention and Treatment of Osteoarthritis by Inhibition of Insulin Growth Factor-1 Signaling” (The Regents of the University of California, priority 2018, published 2021)", "test_system": "ATDC5 cells", "test": "IGF1 stimulated MMP-9/MMP-13 expression in chondrocytes (quantitative real-time PCR)", "format": "cell-based", "conditions": "preliminary dose finding experiments, free inhibitor, data not shown", "method": "Here, we investigated the therapeutic role of the IGF1R inhibitor (NVP-AEW541) in PTOA development. NVP-AEW541 (IGF1Ri) was incorporated into the polyethylene glycol dimethacrylate (PEG-DMA) hydrogel carriers (microrods) for prolonged local delivery in the joint space following ACL rupture (ACLR). […] The left knee served as the control (CON). 1 day after the TCO, vehicle (Veh) or microrods loaded with inhibitor (IGF1Ri/rod) was injected into the injured knee. […] As determined by μCT, compared with the CON knee, ACLR decreased BV/TV (24%) in the subchondral bone, while the IGF1Ri/rod treatment (Tx) prevented the bone loss. […] As indicated by IHC, ACLR increased the number of PCNA positive articular chondrocytes and MMP-13 production in the Veh-treated injured knee, but these effects were blunted in the IGF1Ri-treated injured knee. Moreover, ACLR increased the production of VEGF, resulting in vessel formation within articular cartilage (as indicated by CD31) in the Veh -treated injured knee, but these effects were blocked in the IGF1Ri-treated injured knee.\nFIG. 7. […] The mRNA levels of MMP-9 (upper panel) and MMP-13 (lower panel) were determined by quantitative real-time PCR. […] Results are expressed as percentage of L-19 (house keeper gene) expression (mean±SD) of triplicate determinations. *: p<0.05 IGF-1 treated cultures vs. vehicle treated cultures."}
{"smiles": "Cl.Cl.Nc1ncnc2c1c(-c1cccc(OCc3ccccc3)c1)cn2[C@H]1C[C@@H](CN2CCC2)C1", "note": "[NVP-AEW541, 7-[cis-3-(1-azetidinylmethyl)cyclobutyl]-5-[3-(phenylmethoxy)phenyl]-7H-pyrrolo[2,3-d]pyrimidin-4-amine, dihydrochloride]", "values": [{"measurement": "blocking IGF1 stimulated MMP9 and MMP13 expression", "value": "highly effective"}]}
